Source: patent US10053471B2, “Azabenzimidazole derivatives” (Boehringer Ingelheim International GmbH, priority 2015, dated 2018)

Target: AMPK α1β1γ1 (Homo sapiens (Human), UniProt Q13131+Q9Y478)
Experiment: in vitro AMPK activation assay (ADP Glo Luminescence Kinase test)
Format: biochemical
Conditions: for Emax: maximal achievable activation in the tested concentration range, percent of control max (positive control without test substance = 100%), read-out: AMPK α1β1γ1 PoCmax; for EC50: recombinant human AMPK alpha1/beta1/gamma1, ADP-Glo luminescence read-out
Description: Recombinant human AMPK (containing subunits alpha1, beta1 and gamma1) was obtained from a baculovirus expression system. The 3 subunits were expressed together, affinity-purified via a GST-tag fused to the alpha 1 subunit and deep-frozen in storage buffer (50 mM Tris-HCl pH 8, 300 mM NaCl, 1 mM TCEP and 10% glycerol) at −80° C. until use. The activity of the AMPK protein was determined using the ADP Glo® Luminescence Kinase test (Promega; V9103X). In this homogeneous test the amount of ADP formed by the kinase reaction is quantified by a luciferin-luciferase reaction using luminescence as read-out. The luminescence signal obtained correlates with the amount of ADP resulting from the kinase reaction and thus correlates with the activity of the protein kinase.
The test compounds were dissolved in 100% DMSO at a concentration of 10 mM and in a first step diluted in DMSO to a concentration of 5 mM, followed by serial dilution steps in 100% DMSO. Dilution factor and number of dilution steps may vary. Typically 8 different concentrations by 1:5 dilutions were prepared, further dilutions of the substances were carried out with test buffer (20 mM Hepes (pH 7.0), 15 mM MgCl2, 0.025% BSA, 0.01% Brij 35) until a concentration was reached which was 5 times above the final test concentration. 2 μl aliquots of these dilutions were transferred into a 384-well Optiplate (Perkin Elmer, #6007290). Typically the start concentration for serial dilutions in the assay is 10 μM. Typically AMPK was diluted to 25 μg/ml in the test buffer and 4 μl of this dilution were used in the kinase test (final concentration of AMPK is 10 μg/ml in a total volume of 10 μl for the kinase reaction). Kinase concentrations may vary depending on activity of the preparation batches. After 10 minutes incubation at room temperature 4 μl of a mix containing 2.5 μM substrate (H-His-Met-Arg-Ser-Ala-Met-Ser-Gly-Leu-His-Leu-Val-Lys-Arg-Arg-OH Trifluoroacetate salt/HMRSAMSGLHLVKRR from Bachem, Cat. No. H5938) and 75 μM ATP in test buffer were added to each well and the incubation was continued for 60 minutes at room temperature.
Positive controls are the reaction mixtures that contain no test substance; negative controls (blanks) are reaction mixtures that contain no AMPK enzyme.
After 60 minutes, 10 μl ADP-Glo® solution (ADP-Glo Reagent #V912B Promega) (heated to room temperature) were added to each well and incubation was continued for 40 minutes. Then 20 μl Kinase detection mix (Detection Buffer #V913B Promega; Kinase Detection Substrate #V914B Promega) were added and incubated for additional 40 minutes at room temperature.
All incubations were done in sealed plates in the dark.
The plates were read with an Envision Luminescence Reader (Perkin-Elmer).
Data Evaluation and Calculation:
The output file of the reader is a csv file that contains the well number and measured RLU. For data evaluation and calculation, the measurement of the negative control was set as 0% control and the measurement of the positive control was set as 100% control. Based on these values the % value for the measurement of each substance concentration was calculated using Assay Explorer software (Accelrys). Activating compounds achieve % of control values above 100%. The IC50 values were calculated from the % control values using Assay Explorer software. Calculation: [y=(a−d)/(1+(x/c)^b)+d], a=low value, d=high value; x=conc M; c=IC50 M; b=hill; y=% ctrl. The maximal achievable activation of a compound in the tested concentration range is reported as percent of control max (PoCmax).

Chain of AMPK α1β1γ1 (Q13131 whole entry): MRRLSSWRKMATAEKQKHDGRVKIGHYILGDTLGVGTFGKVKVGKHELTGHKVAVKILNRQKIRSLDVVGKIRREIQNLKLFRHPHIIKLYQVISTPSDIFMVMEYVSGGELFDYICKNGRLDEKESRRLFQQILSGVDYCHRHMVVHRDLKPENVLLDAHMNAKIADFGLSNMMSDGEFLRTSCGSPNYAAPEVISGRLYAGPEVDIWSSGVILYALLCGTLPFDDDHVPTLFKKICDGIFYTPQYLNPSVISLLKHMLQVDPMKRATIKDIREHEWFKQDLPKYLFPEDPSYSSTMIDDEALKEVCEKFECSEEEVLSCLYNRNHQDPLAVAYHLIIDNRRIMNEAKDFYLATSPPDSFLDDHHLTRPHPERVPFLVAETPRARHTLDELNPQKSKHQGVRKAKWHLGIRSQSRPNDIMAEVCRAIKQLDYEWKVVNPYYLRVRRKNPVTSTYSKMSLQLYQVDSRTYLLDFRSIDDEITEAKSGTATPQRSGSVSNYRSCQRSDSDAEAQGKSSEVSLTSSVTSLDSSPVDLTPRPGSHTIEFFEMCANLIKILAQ
Chain of AMPK α1β1γ1 (Q9Y478 whole entry): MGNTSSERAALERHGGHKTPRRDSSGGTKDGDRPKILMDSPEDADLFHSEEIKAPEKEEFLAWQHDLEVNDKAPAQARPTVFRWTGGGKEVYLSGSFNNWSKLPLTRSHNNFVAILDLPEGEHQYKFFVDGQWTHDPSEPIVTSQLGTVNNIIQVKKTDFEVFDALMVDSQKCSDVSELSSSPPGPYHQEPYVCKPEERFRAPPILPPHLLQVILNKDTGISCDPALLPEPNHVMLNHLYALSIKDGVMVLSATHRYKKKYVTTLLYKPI
Chain of AMPK α1β1γ1 (P54619 whole entry partner): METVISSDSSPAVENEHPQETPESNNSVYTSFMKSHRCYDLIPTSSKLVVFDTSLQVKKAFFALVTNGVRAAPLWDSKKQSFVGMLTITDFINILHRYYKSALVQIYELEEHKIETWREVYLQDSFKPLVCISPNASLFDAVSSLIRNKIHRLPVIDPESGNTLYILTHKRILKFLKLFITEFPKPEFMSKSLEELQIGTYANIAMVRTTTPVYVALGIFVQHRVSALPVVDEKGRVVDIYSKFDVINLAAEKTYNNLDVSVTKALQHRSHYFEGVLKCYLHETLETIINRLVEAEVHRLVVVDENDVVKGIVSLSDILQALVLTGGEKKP

| Emax | EC50 | SMILES |
| --- | --- | --- |
| 540% | 284 nM | CS(C)(=O)=Nc1ccc(-c2ccc(-c3nc4[nH]c(O[C@@H]5CO[C@H]6[C@@H]5OC[C@H]6O)nc4cc3Cl)cc2)cc1F [Example 1, ({4-[4-(2-{[(3R,3aR,6R,6aR)-6-Hydroxy-hexahydrofuro[3,2-b]furan-3-yl]oxy}-6-chloro-3H-imidazo[4,5-b]pyridin-5-yl)phenyl]-2-fluorophenyl}imino)dimethyl-λ^6-sulfanone] |
| 496% | 115 nM | CS(C)(=O)=Nc1cc(F)c(-c2ccc(-c3nc4[nH]c(O[C@@H]5CO[C@H]6[C@@H]5OC[C@H]6O)nc4cc3Cl)cc2)c(F)c1 [Example 2, ({4-[4-(2-{[(3R,3aR,6R,6aR)-6-Hydroxy-hexahydrofuro[3,2-b]furan-3-yl]oxy}-6-chloro-3H-imidazo[4,5-b]pyridin-5-yl)phenyl]-3,5-difluorophenyl}imino)dimethyl-λ^6-sulfanone] |
| 480% | 302 nM | CS(C)(=O)=Nc1cc(F)c(-c2ccc(-c3nc4[nH]c(O[C@@H]5CO[C@H]6[C@@H]5OC[C@H]6O)nc4cc3Cl)cc2)cc1F [Example 3, ({4-[4-(2-{[(3R,3aR,6R,6aR)-6-Hydroxy-hexahydrofuro[3,2-b]furan-3-yl]oxy}-6-chloro-3H-imidazo[4,5-b]pyridin-5-yl)phenyl]-2,5-difluorophenyl}imino)dimethyl-λ^6-sulfanone] |
| 421% | 3560 nM | CS(C)(=O)=Nc1c(F)cc(-c2ccc(-c3nc4[nH]c(O[C@@H]5CO[C@H]6[C@@H]5OC[C@H]6O)nc4cc3Cl)cc2)cc1F [Example 4, ({4-[4-(2-{[(3R,3aR,6R,6aR)-6-Hydroxy-hexahydrofuro[3,2-b]furan-3-yl]oxy}-6-chloro-3H-imidazo[4,5-b]pyridin-5-yl)phenyl]-2,6-difluorophenyl}imino)dimethyl-λ^6-sulfanone] |
| 538% | 60 nM | CS(C)(=O)=Nc1ccc(-c2ccc(-c3nc4[nH]c(O[C@@H]5CO[C@H]6[C@@H]5OC[C@H]6O)nc4cc3Cl)cc2)c(F)c1 [Example 5, ({4-[4-(2-{[(3R,3aR,6R,6aR)-6-Hydroxy-hexahydrofuro[3,2-b]furan-3-yl]oxy}-6-chloro-3H-imidazo[4,5-b]pyridin-5-yl)phenyl]-3-fluorophenyl}imino)dimethyl-λ^6-sulfanone] |
| 490% | 450 nM | CS(C)(=O)=Nc1ccc(-c2ccc(-c3nc4[nH]c(O[C@@H]5CO[C@H]6[C@@H]5OC[C@H]6O)nc4cc3Cl)cc2)c(F)c1F [Example 6, ({4-[4-(2-{[(3R,3aR,6R,6aR)-6-Hydroxy-hexahydrofuro[3,2-b]furan-3-yl]oxy}-6-chloro-3H-imidazo[4,5-b]pyridin-5-yl)phenyl]-2,3-difluorophenyl}imino)dimethyl-λ^6-sulfanone] |
| 640% | 125 nM | CS(C)(=O)=Nc1ccc(-c2ccc(-c3nc4[nH]c(O[C@@H]5CO[C@H]6[C@@H]5OC[C@H]6O)nc4cc3Cl)c(F)c2)cc1 [Example 7, ({4-[4-(2-{[(3R,3aR,6R,6aR)-6-Hydroxy-hexahydrofuro[3,2-b]furan-3-yl]oxy}-6-chloro-3H-imidazo[4,5-b]pyridin-5-yl)-3-fluorophenyl]phenyl}imino)dimethyl-λ^6-sulfanone] |
| 659% | 255 nM | CS(C)(=O)=Nc1ccc(-c2ccc(-c3nc4[nH]c(O[C@@H]5CO[C@H]6[C@@H]5OC[C@H]6O)nc4cc3Cl)cc2F)cc1 [Example 8, ({4-[4-(2-{[(3R,3aR,6R,6aR)-6-Hydroxy-hexahydrofuro[3,2-b]furan-3-yl]oxy}-6-chloro-3H-imidazo[4,5-b]pyridin-5-yl)-2-fluorophenyl]phenyl}imino)dimethyl-λ^6-sulfanone] |
| 700% | 282 nM | CS(C)(=O)=Nc1ccc(-c2ccc(-c3nc4[nH]c(O[C@@H]5CO[C@H]6[C@@H]5OC[C@H]6O)nc4cc3Cl)c(F)c2F)cc1 [Example 9, ({4-[4-(2-{[(3R,3aR,6R,6aR)-6-Hydroxy-hexahydrofuro[3,2-b]furan-3-yl]oxy}-6-chloro-3H-imidazo[4,5-b]pyridin-5-yl)-2,3-difluorophenyl]phenyl}imino)dimethyl-λ^6-sulfanone] |
| 479% | 193 nM | CS(C)(=O)=Nc1cnc(-c2ccc(-c3nc4[nH]c(O[C@@H]5CO[C@H]6[C@@H]5OC[C@H]6O)nc4cc3Cl)cc2)c(F)c1 [Example 10, ({6-[4-(2-{[(3R,3aR,6R,6aR)-6-Hydroxy-hexahydrofuro[3,2-b]furan-3-yl]oxy}-6-chloro-3H-imidazo[4,5-b]pyridin-5-yl)phenyl]-5-fluoropyridin-3-yl}imino)dimethyl-λ^6-sulfanone] |
| 423% | 1200 nM | COc1nc(-c2ccc(N=S(C)(C)=O)cc2)ccc1-c1nc2[nH]c(O[C@@H]3CO[C@H]4[C@@H]3OC[C@H]4O)nc2cc1Cl [Example 11, ({4-[5-(2-{[(3R,3aR,6R,6aR)-6-Hydroxy-hexahydrofuro[3,2-b]furan-3-yl]oxy}-6-chloro-3H-imidazo[4,5-b]pyridin-5-yl)-6-methoxypyridin-2-yl]phenyl}imino)dimethyl-λ^6-sulfanone] |
| 608% | 109 nM | CS(C)(=O)=Nc1ccc(-c2ccc(-c3nc4nc(O[C@@H]5CO[C@H]6[C@@H]5OC[C@H]6O)[nH]c4cc3F)cc2)cc1 [Example 12, ({4-[4-(2-{[(3R,3aR,6R,6aR)-6-Hydroxy-hexahydrofuro[3,2-b]furan-3-yl]oxy}-6-fluoro-1H-imidazo[4,5-b]pyridin-5-yl)phenyl]phenyl}imino)dimethyl-λ^6-sulfanone] |
| 523% | – | CS(=N)(=O)c1ccc(-c2ccc(-c3nc4[nH]c(O[C@@H]5CO[C@H]6[C@@H]5OC[C@H]6O)nc4cc3Cl)cc2)c(F)c1 (stereo partly drawn) [Example 13, {4-[4-(2-{[(3R,3aR,6R,6aR)-6-Hydroxy-hexahydrofuro[3,2-b]furan-3-yl]oxy}-6-chloro-3H-imidazo[4,5-b]pyridin-5-yl)phenyl]-3-fluorophenyl}(imino)methyl-λ^6-sulfanone] |
| 484% | 68 nM | CS(C)(=O)=Nc1ccc(-c2ccc(-c3nc4nc(O[C@@H]5CO[C@H]6[C@@H]5OC[C@H]6O)[nH]c4cc3F)cc2)c(F)c1 [Example 14, ({4-[4-(2-{[(3R,3aR,6R,6aR)-6-Hydroxy-hexahydrofuro[3,2-b]furan-3-yl]oxy}-6-fluoro-1H-imidazo[4,5-b]pyridin-5-yl)phenyl]-3-fluorophenyl}imino)dimethyl-λ^6-sulfanone] |
| 426% | 344 nM | COc1nc(-c2ccc(N=S(C)(C)=O)cc2F)ccc1-c1nc2[nH]c(O[C@@H]3CO[C@H]4[C@@H]3OC[C@H]4O)nc2cc1Cl [Example 15, ({4-[5-(2-{[(3R,3aR,6R,6aR)-6-Hydroxy-hexahydrofuro[3,2-b]furan-3-yl]oxy}-6-chloro-3H-imidazo[4,5-b]pyridin-5-yl)-6-methoxypyridin-2-yl]-3-fluorophenyl}imino)dimethyl-λ^6-sulfanone] |
| 475% | 74 nM | CS(C)(=O)=Nc1ccc(-c2cc(F)c(-c3nc4nc(O[C@@H]5CO[C@H]6[C@@H]5OC[C@H]6O)[nH]c4cc3F)c(F)c2)cc1 [Example 16, ({4-[4-(2-{[(3R,3aR,6R,6aR)-6-Hydroxy-hexahydrofuro[3,2-b]furan-3-yl]oxy}-6-fluoro-1H-imidazo[4,5-b]pyridin-5-yl)-3,5-difluorophenyl]phenyl}imino)dimethyl-λ^6-sulfanone] |
| 475% | 84 nM | CS(C)(=O)=Nc1ccc(-c2cc(F)c(-c3nc4nc(O[C@@H]5CO[C@H]6[C@@H]5OC[C@H]6O)[nH]c4cc3Cl)c(F)c2)cc1 [Example 17, ({4-[4-(2-{[(3R,3aR,6R,6aR)-6-Hydroxy-hexahydrofuro[3,2-b]furan-3-yl]oxy}-6-chloro-1H-imidazo[4,5-b]pyridin-5-yl)-3,5-difluorophenyl]phenyl}imino)dimethyl-λ^6-sulfanone] |
